These results are taken from patent publication US20230332103A1, “Methods and Compositions for Generating Human Forebrain Neural Progenitor Cells and for Maturation Thereof to Parvalbumin+ Interneurons” (Trailhead Biosystems Inc., priority 2021, published 2023).

In assay [1] the test system is stage 4 neural stem cells. Kind of assay: HD-DoE 8-factor experiment for stage 5 recipe (Forskolin, Arachidonic acid, VPA, BDNF, BT13, O-LPA, GW7646, Sodium pyruvate), optimized for PVALB. The format is cell-based, human. The settings on record: for impact on expression of PVALB: dynamic profile analysis, FIG. 26; for factor contribution on expression of PVALB: positive, model optimized for maximum expression of PVALB, FIG. 25. The protocol:
To further guide the differentiation of forebrain-committed neural stem cells to PVALB interneuron cells, an additional HD-DoE experiment was performed for 3 days on cells that were treated with stage 1 to stage 4 media for total of 12 days prior to start of the experiment. This experiment included 8 effectors, Forskolin, Arachidonic acid, VPA, BDNF, BT13, O-LPA, GW7646, and Sodium pyruvate. In this model, we focused on maximum expression of PVALB gene expressed in PVALB (+) interneurons (Nahar et al. (2021) Front. Psych. 12:679960). When the model was optimized for maximum expression of PVALB, Forskolin, GW7646, Sodium Pyruvate had the highest factor contributions, 3.14, 27.2, and 17.1 respectively (FIG. 25).
So, it was excluded in the recipe.

For assay [2], the system named is stage 4 neural stem cells. The assay is described as follows: factor criticality analysis of stage 5 recipe. The settings on record: FIG. 28-30. The format is cell-based, human. The protocol:
To assess the impact of elimination of each validated factor, we again used dynamic profile analysis and compared the expression level of genes of interest in the absence of each finalized factor while others are present.
In the stage 5 recipe, each of seven finalized factors were removed while other factors were kept present and expression levels of PVALB and SST were assessed compared to the presence of all seven factors. […] 2-phospho-L-ascorbic acid, BDNF, IGF-1 were included in the stage 5 recipe (FIG. 28). […] Others were also found to increase the expression of somatostatin that was SST interneuron marker. So, they are excluded from the recipe and N2 was included in the stage 5 recipe (FIG. 29). […] Sodium pyruvate was included in the stage 5 recipe (FIG. 30).

In the case of `CCN(CC)S(=O)(=O)c1ccc(OC)c(N2CCN(C(=O)c3ccc(F)cc3C(F)(F)F)CC2)c1` [BT13], the “impact on expression of PVALB” value in assay [1] is “significant negative impact”.

For `C=C[C@@]1(C)CC(=O)[C@]2(O)[C@@]3(C)[C@@H](O)CCC(C)(C)[C@@H]3[C@H](O)[C@H](OC(C)=O)[C@@]2(C)O1` [Forskolin], in assay [1], the “factor contribution on expression of PVALB” value was 3.14.

Regarding `CC(=O)C(=O)[O-].[Na+]` [Sodium pyruvate], in assay [1], the “impact on expression of PVALB” value was “significant effect” and the “factor contribution on expression of PVALB” value is on record as 17.1. The “impact on expression of PVALB” value in assay [1] (listed as sodium pyruvate) is recorded as “positive impact”. In addition, the “contribution to expression of PVALB (Parvalbumin)” value in assay [2] was “contribute to PVALB expression”.
